# Source: US20060052455A1, “Composition for preventing treating the xepression of clinical symptom in disease caused by mitochondrial dysfunction” (priority 2002, published 2006)
# Test system: MELAS patients
# Assay: Intravenous drip infusion of L-arginine monohydrochloride to MELAS patients
# Format: in vivo, human
# Description: This treatment by intravenous injection is, however, not convenient for MELAS patients, because, in order to receive intravenous injection in the acute stage of cerebral apoplexy-like episode, they have to go to the hospital to receive such intravenous injection immediately after the episode has occurred. […] The scintillating scotoma refers to an abnormal visual field which is one of warning symptoms of a cerebral apoplexy-like episode, and when it occurs, a riffle-like light suddenly appears in a part of the visual field and usually lasts for 5 to 30 minutes. Moreover, administration of a large amount of L-arginine monohydrochloride into a blood vessel may presumably cause side effects such as drop in blood pressure, hydrochloric acidosis, or the like.
compound,measurement,setting,value
Cl.N=C(N)NCCC[C@H](N)C(=O)O [L-arginine monohydrochloride],treatment of the acute stage of cerebral apoplexy-like episode due to MELAS,"intravenous drip infusion, three patients",effective
same,"improvement of warning symptoms of the episode, particularly scintillating scotoma",intravenous injection,cannot improve
